Experimental findings from US20260184691A1, “INHIBITORS AND DEGRADERS OF PIP4K PROTEIN” (Larkspur Biosciences, Inc., priority 2022, published 2026) are described below.

The target of experiment [1] is T1, endogenous PIP4K2C C-terminally tagged with HiBiT peptide in MOLT-4 cells (Homo sapiens, UniProt Q8TBX8).
T1 construct: to C-terminally tag endogenous PIP4K2C with HiBiT peptide; host or cells: MOLT-4 (CRISPR-Cas9 knock-in clone)
T1 sequence (Q8TBX8 1-421): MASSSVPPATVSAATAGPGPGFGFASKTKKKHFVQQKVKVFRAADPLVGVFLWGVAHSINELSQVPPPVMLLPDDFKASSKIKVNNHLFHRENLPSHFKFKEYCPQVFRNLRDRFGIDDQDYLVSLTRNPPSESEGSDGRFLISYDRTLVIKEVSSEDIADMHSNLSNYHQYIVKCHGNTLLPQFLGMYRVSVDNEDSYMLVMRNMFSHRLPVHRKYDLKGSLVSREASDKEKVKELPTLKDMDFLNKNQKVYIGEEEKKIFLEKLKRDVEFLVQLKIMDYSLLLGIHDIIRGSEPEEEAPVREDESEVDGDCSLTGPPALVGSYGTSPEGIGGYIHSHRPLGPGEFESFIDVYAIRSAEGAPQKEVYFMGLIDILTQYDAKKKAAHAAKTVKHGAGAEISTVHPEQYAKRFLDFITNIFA
The experiment is described as follows: HiBiT PIP4K2C degradation assay in MOLT-4 cells. It counts as cell-based. As to conditions: 24 hours, 10-point dose response, top concentration 10 micromolar, read-out: HiBIT-degradation MOLT4 PIP4k2C 24 hours DC50. As to the method:
Following clonal selection, genotype was confirmed by Sanger sequencing. […] Nano-Glo® HiBiT Lytic Assay System was purchased from Promega (Madison, WI, Catalog number N3030). Cell culture flasks and 384-well microplates were purchased from Corning (Glendale, AZ).
To study PIP4K2C degradation, 384-well plates were plated with a 10-point dose response curve, 3-fold dilution, in duplicate with a top starting concentration of 10 micromolar. Subsequently 22,500 cells were added to each well and incubated at 37C in 5% CO2 for 24 hours. At the end of the incubation time, cells were treated with the Nano-Glo® HiBiT Lytic Detection System following the manufacturer's instructions. Luminescence was measured with a PHERAstar FSX plate reader (BMG Labtech, Cary, NC). The Levenberg-Marquardt algorithm was used to fit a Hill equation to dose-response data to calculate DC50 values (see Table 6).
Background: With HiBiT, luminescence reflects the tagged protein that the partner subunit can reach.

For the next experiment, the target named is T2, Human PIP4K2C (Homo sapiens, UniProt Q8TBX8).
T2 construct: purchased Eurofins DiscoverX 87-0007-1094
T2 sequence (Q8TBX8 1-421): T1 sequence (Q8TBX8 1-421)
The experiment is described as follows: Enzyme binding assay (KINOMEscan), active site-directed competition binding. As to conditions: 11-point dose response, duplicate, top concentration 5 micromolar; read-out: Pip4k2c Kd: IC50. An outline of the steps: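 Active site-directed competition against immobilized ligand. 11-point dose response in duplicate, top concentration 5 micromolar; IC50 from Hill fit by Levenberg-Marquardt.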

Where only a bound is given, the exact number is not on record here.

The term DC50 denotes the concentration giving 50% degradation. In the case of `O=C1CCC(Nc2ccc(C3CCN(C(=O)CN4CCC(C(=O)Nc5cncc(Nc6ncc(Cl)c(-c7cccc(C8CC8)c7)n6)c5)CC4)CC3)cc2)C(=O)N1` (stereo not drawn) [Compound 202, N-(5-((5-chloro-4-(3-cyclopropylphenyl)pyrimidin-2-yl)amino)pyridin-3-yl)-1-(2-(4-(4-((2,6-dioxopiperidin-3-yl)amino)phenyl)piperidin-1-yl)-2-oxoethyl)piperidine-4-carboxamide], the half-maximal degradation concentration (DC50) in experiment [1] is below 500 nM.

Take `O=C1CCC(N2Cc3cc(OCCCCCCC(=O)N4CCC5(CC4)CCN(c4cncc(Nc6ncc(Cl)c(-c7cccc(-c8ccccc8)c7)n6)c4)C5=O)ccc3C2=O)C(=O)N1` (stereo not drawn) [Compound 64, 3-(5-((7-(2-(5-((4-([1,1′-biphenyl]-3-yl)-5-chloropyrimidin-2-yl)amino)pyridin-3-yl)-1-oxo-2,8-diazaspiro[4.5]decan-8-yl)-7-oxoheptyl)oxy)-1-oxoisoindolin-2-yl)piperidine-2,6-dione]: the DC50 in experiment [1] was below 500 nM. As to `O=C1CCC(N2C(=O)c3cccc(OCCCN4CCN(CCCCCC(=O)Nc5cncc(Nc6ncc(Cl)c(-c7cccc(-c8ccccc8)c7)n6)c5)CC4)c3C2=O)C(=O)N1` (stereo not drawn) [Compound 68, N-(5-((4-([1,1′-biphenyl]-3-yl)-5-chloropyrimidin-2-yl)amino)pyridin-3-yl)-6-(4-(3-((2-(2,6-dioxopiperidin-3-yl)-1,3-dioxoisoindolin-4-yl)oxy)propyl)piperazin-1-yl)hexanamide], in experiment [1], the DC50 is below 500 nM.

In general, IC50 refers to the concentration needed to halve the response being measured. Regarding `O=C1CCCN1c1cncc(Nc2ncc(Cl)c(-c3cc(C4CC4)[nH]n3)n2)c1` [Compound 50, 1-(5-((5-chloro-4-(5-cyclopropyl-1H-pyrazol-3-yl)pyrimidin-2-yl)amino)pyridin-3-yl)pyrrolidin-2-one], the IC50 on Human PIP4K2C is below 500 nM.

For `O=C1CCCN1c1cncc(Nc2ncc(Cl)c(-c3cnn(C4CCCC4)c3)n2)c1` [Compound 138, 1-[5-[[5-chloro-4-(1-cyclopentylpyrazol-4-yl)pyrimidin-2-yl]amino]-3-pyridyl]pyrrolidin-2-one], at Human PIP4K2C, the IC50 is below 500 nM. The same measure, in the same setting: with `O=C1CCCN1c1cncc(Nc2ncc(Cl)c(-c3ccccc3Cl)n2)c1` [Compound 95, 1-(5-((5-chloro-4-(2-chlorophenyl)pyrimidin-2-yl)amino)pyridin-3-yl)pyrrolidin-2-one] the figure was below 500 nM; with `CC1CCCCN1c1nc(Nc2cncc(N3CCCC3=O)c2)ncc1Cl` (stereo not drawn) [Compound 106, 1-(5-((5-chloro-4-(2-methylpiperidin-1-yl)pyrimidin-2-yl)amino)pyridin-3-yl)pyrrolidin-2-one], below 500 nM; with `O=C1CCCN1c1cncc(Nc2ncc(Cl)c(-c3cccc(-c4cccnc4)c3)n2)c1` [Compound 16, 1-(5-((5-chloro-4-(3-(pyridin-3-yl)phenyl)pyrimidin-2-yl)amino)pyridin-3-yl)pyrrolidin-2-one], below 500 nM. In the case of `O=C1CCCN1c1cncc(Nc2ncc(Cl)c(-c3cccc(C4CCCNC4)c3)n2)c1` (stereo not drawn) [Compound 30, 1-(5-((5-chloro-4-(3-(piperidin-3-yl)phenyl)pyrimidin-2-yl)amino)pyridin-3-yl)pyrrolidin-2-one], the IC50 on Human PIP4K2C was below 500 nM.

In the case of `CC(=O)N1CCC(c2cccc(-c3nc(Nc4cncc(N5CCCC5=O)c4)ncc3Cl)c2)CC1` [Compound 28, 1-(5-((4-(3-(1-acetylpiperidin-4-yl)phenyl)-5-chloropyrimidin-2-yl)amino)pyridin-3-yl)pyrrolidin-2-one], at Human PIP4K2C, the IC50 is below 500 nM.

For `O=C1CCCN1c1cncc(Nc2ncc(F)c(-c3ccc(=O)n(C4COC4)c3)n2)c1` [Compound 155, 5-(5-fluoro-2-((5-(2-oxopyrrolidin-1-yl)pyridin-3-yl)amino)pyrimidin-4-yl)-1-(oxetan-3-yl)pyridin-2(1H)-one], the IC50 on Human PIP4K2C is below 500 nM.

`Cc1ccc(-c2nc(Nc3cncc(N4CCCC4=O)c3)ncc2Cl)cc1-c1ccccc1` [Compound 7, 1-(5-((5-chloro-4-(6-methyl-[1,1′-biphenyl]-3-yl)pyrimidin-2-yl)amino)pyridin-3-yl)pyrrolidin-2-one]: the half-inhibitory concentration (IC50) on Human PIP4K2C was below 500 nM.

Regarding `CN1CCC(n2cc(-c3nc(Nc4cncc(N5CCCC5=O)c4)ncc3Cl)cn2)CC1` [Compound 47, 1-(5-((5-chloro-4-(1-(1-methylpiperidin-4-yl)-1H-pyrazol-4-yl)pyrimidin-2-yl)amino)pyridin-3-yl)pyrrolidin-2-one], on Human PIP4K2C, the IC50 was below 500 nM. The same measure, in the same setting: with `O=C1CCCN1c1cncc(Nc2ncc(Cl)c(-c3cccc(C4CCC4)c3)n2)c1` [Compound 39, 1-(5-((5-chloro-4-(3-cyclobutylphenyl)pyrimidin-2-yl)amino)pyridin-3-yl)pyrrolidin-2-one] the figure was below 500 nM; with `O=C(C1CCCC1)N1CCCC(c2nc(Nc3cncc(N4CCCC4=O)c3)ncc2Cl)C1` (stereo not drawn) [Compound 146, 1-(5-((5-chloro-4-(1-(cyclopentanecarbonyl)piperidin-3-yl)pyrimidin-2-yl)amino)pyridin-3-yl)pyrrolidin-2-one], below 500 nM. Still for that read-out and setting: to `O=C1CCCN1c1cncc(Nc2ncc(Cl)c(-c3cc(-c4ccccc4)[nH]n3)n2)c1` [Compound 49, 1-(5-((5-chloro-4-(5-phenyl-1H-pyrazol-3-yl)pyrimidin-2-yl)amino)pyridin-3-yl)pyrrolidin-2-one] belongs below 500 nM. Take `CC(=O)N1CCC(c2nc(Nc3cncc(N4CCCC4=O)c3)ncc2Cl)CC1` [Compound 152, 1-(5-((4-(1-acetylpiperidin-4-yl)-5-chloropyrimidin-2-yl)amino)pyridin-3-yl)pyrrolidin-2-one]: at Human PIP4K2C, the IC50 was below 500 nM.

Consider `CC(=O)N1CC2(CC(=O)N(c3cncc(Nc4ncc(Cl)c(-c5cccc(-c6ccccc6)c5)n4)c3)C2)C1` [Compound 36, 6-(5-((4-([1,1′-biphenyl]-3-yl)-5-chloropyrimidin-2-yl)amino)pyridin-3-yl)-2-acetyl-2,6-diazaspiro[3.4]octan-7-one], for which the IC50 at Human PIP4K2C is below 500 nM.

Take `CC1CC(C)CN(c2nc(Nc3cncc(N4CCCC4=O)c3)ncc2Cl)C1` (stereo not drawn) [Compound 115, 1-(5-((5-chloro-4-(3,5-dimethylpiperidin-1-yl)pyrimidin-2-yl)amino)pyridin-3-yl)pyrrolidin-2-one]: the IC50 on Human PIP4K2C is below 500 nM.

Consider `O=C1CCCN1c1cncc(Nc2ncc(Cl)c(-c3cccc(-c4cnccn4)c3)n2)c1` [Compound 17, 1-(5-((5-chloro-4-(3-(pyrazin-2-yl)phenyl)pyrimidin-2-yl)amino)pyridin-3-yl)pyrrolidin-2-one], for which, at Human PIP4K2C, the IC50 is below 500 nM. With `COc1ccc(-c2nc(Nc3cncc(N4CCCC4=O)c3)ncc2Cl)cc1-c1ccccc1` [Compound 8, 1-(5-((5-chloro-4-(6-methoxy-[1,1′-biphenyl]-3-yl)pyrimidin-2-yl)amino)pyridin-3-yl)pyrrolidin-2-one], on Human PIP4K2C, the IC50 was below 500 nM.

For the molecule `O=C1CCCN1c1cncc(Nc2ncc(F)c(-c3ccc(=O)n(CC4CC4)c3)n2)c1` [Compound 158, 1-(cyclopropylmethyl)-5-(5-fluoro-2-((5-(2-oxopyrrolidin-1-yl)pyridin-3-yl)amino)pyrimidin-4-yl)pyridin-2(1H)-one], the IC50 at Human PIP4K2C is below 500 nM.

As to `O=C1N(c2cncc(Nc3ncc(Cl)c(-c4cccc(-c5ccccc5)c4)n3)c2)CCC12CCNCC2` [Compound 1, 2-(5-((4-([1,1′-biphenyl]-3-yl)-5-chloropyrimidin-2-yl)amino)pyridin-3-yl)-2,8-diazaspiro[4.5]decan-1-one], at Human PIP4K2C, the IC50 is below 500 nM.

As to `O=C1CCCN1c1cncc(Nc2cc(-c3ccc(F)cc3F)c(Cl)cn2)c1` [Compound 104, 1-(5-((5-chloro-4-(2,4-difluorophenyl)pyridin-2-yl)amino)pyridin-3-yl)pyrrolidin-2-one], the IC50 at Human PIP4K2C was in the range of 500 to 1000 nM.

Take `O=C1CCCN1c1ccnc(Nc2ncc(Cl)c(-c3cccc(C4CCCCC4)c3)n2)c1` [Compound 150, 1-(2-((5-chloro-4-(3-cyclohexylphenyl)pyrimidin-2-yl)amino)pyridin-4-yl)pyrrolidin-2-one]: the IC50 at Human PIP4K2C was 500 to 1000 nM.

On to `O=C1CCCN1c1cncc(Nc2ncc(Cl)c(N3CCOC(c4ccccc4)C3)n2)c1` (stereo not drawn) [Compound 41, 1-[5-[[5-chloro-4-(2-phenylmorpholin-4-yl)pyrimidin-2-yl]amino]-3-pyridyl]pyrrolidin-2-one], for which the IC50 at Human PIP4K2C is below 500 nM. Take `CN1CCN(c2cncc(Nc3ncc(Cl)c(-c4cccc(-c5ccccc5)c4)n3)c2)C1=O` [Compound 32, 1-(5-((4-([1,1′-biphenyl]-3-yl)-5-chloropyrimidin-2-yl)amino)pyridin-3-yl)-3-methylimidazolidin-2-one]: the IC50 on Human PIP4K2C was below 500 nM.
